Values joined by “and” are separate entries in the source; they are usually repeats but may differ in a detail not shown here. Equal values may be shown once.
Legend:
[1] = tested on: Ba/F3 cells WT EGFR (+ rhEGF); assay: Ba/F3 cell viability; format: cell-based; conditions: read-out: IC50 (average ± SD); Ba/F3 WT EGFR (+ rhEGF 10 ng/mL), 3 days
[2] = tested on: Ba/F3 cells HER2 A775_G776insYVMA; assay: Ba/F3 cell viability; format: cell-based; conditions: read-out: IC50 (average ± SD); Ba/F3 HER2 A775_G776insYVMA, 3 days
[3] = tested on: Ba/F3 cells HER2 P780_Y781insGSP; assay: Ba/F3 cell viability; format: cell-based; conditions: read-out: IC50 (average ± SD); Ba/F3 HER2 P780_Y781insGSP, 3 days
[4] = tested on: Ba/F3 cells HER2 G776delinsVC; assay: Ba/F3 cell viability; format: cell-based; conditions: read-out: IC50 (average ± SD); Ba/F3 HER2 G776delinsVC, 3 days
[5] = tested on: Ba/F3 cells HER2 M774delinsWLV; assay: Ba/F3 cell viability; format: cell-based; conditions: read-out: IC50 (average ± SD); Ba/F3 HER2 M774delinsWLV, 3 days
Ba/F3 cells HER2 S310F = assay: Ba/F3 cell viability; format: cell-based; conditions: read-out: IC50 (average ± SD); Ba/F3 HER2 S310F, 3 days
Ba/F3 cells HER2 L755S = assay: Ba/F3 cell viability; format: cell-based; conditions: read-out: IC50 (average ± SD); Ba/F3 HER2 L755S, 3 days
Ba/F3 cells HER2 V777L = assay: Ba/F3 cell viability; format: cell-based; conditions: read-out: IC50 (average ± SD); Ba/F3 HER2 V777L, 3 days
Ba/F3 cells HER2 V862I = assay: Ba/F3 cell viability; format: cell-based; conditions: read-out: IC50 (average ± SD); Ba/F3 HER2 V862I, 3 days
[6] = tested on: Ba/F3 cells HER2 755_757LREdelinsRP; assay: Ba/F3 cell viability; format: cell-based; conditions: read-out: IC50 (average ± SD); Ba/F3 HER2 755_757LREdelinsRP, 3 days
[7] = tested on: Ba/F3 cells HER2 amplification; assay: Ba/F3 cell viability; format: cell-based; conditions: read-out: IC50 (average ± SD); Ba/F3 HER2 amplification, 3 days
[8] = tested on: WT EGFR vs all HER2 mutants Ba/F3 cells; assay: Selectivity index from Ba/F3 IC50 ratios; format: cell-based; conditions: average over HER2 mutants
[9] = tested on: HER YVMA Ba/F3 cells containing a concurrent C805S mutation; assay: Ba/F3 cell viability, concurrent C805S mutation; format: cell-based; conditions: HER YVMA Ba/F3 cells with concurrent C805S mutation
MCF7 = assay: Cancer cell viability; format: cell-based, human; conditions: read-out: IC50 (average ± SD); MCF7, breast cancer, no ERBB mutation, 72 h
A-431 = assay: Cancer cell viability; format: cell-based, human; conditions: read-out: IC50 (average ± SD); A-431, epidermoid, EGFR amp, 72 h
H1781 = assay: Cancer cell viability; format: cell-based, human; conditions: read-out: IC50 (average ± SD); H1781, NSCLC, HER2 ins, 72 h
DFCI 429 = assay: Patient-derived cancer cell viability; format: cell-based, human; conditions: read-out: IC50 (average ± SD); DFCI 429, NSCLC, HER2 amp, 3 days
DFCI 315 [10] = assay: Patient-derived tumor spheroid viability; format: cell-based, human; conditions: read-out: IC50 (average ± SD); DFCI 315, NSCLC, HER2 ins, 6 days
BT-474 = assay: Cancer cell viability; format: cell-based, human; conditions: read-out: IC50 (average ± SD); BT-474, breast cancer, HER2 amp, 72 h
SKBR3 = assay: Cancer cell viability; format: cell-based, human; conditions: read-out: IC50 (average ± SD); SKBR3, breast cancer, HER2 amp, 72 h
NCI-N87 = assay: Cancer cell viability; format: cell-based, human; conditions: read-out: IC50 (average ± SD); NCI-N87, HER2 amp, 72 h
[11] = Pharmacokinetic properties in mice; format: in vivo
Calu-3 tumors [12] = assay: Calu-3 xenograft efficacy; format: in vivo; conditions: Calu-3 in NCr nude mice, oral, 39 days; JBJ-08-178-01 at 50 mg/kg BID
Calu-3 tumors [13] = assay: TUNEL assay in Calu-3 tumors; format: in vivo, NCr nude mice; conditions: 50 mg/kg BID, 3 days dosing
Calu-3 = assay: Caspase-3/7 activity, live-cell imaging; format: cell-based, human; conditions: Calu-3, live-cell imaging, 3 days
DFCI 315 [14] = assay: AO/PI live/dead staining of tumor spheroids; format: cell-based, human; conditions: DFCI 315 tumor spheroids, 5 days
WT HER2 = WT HER2 (Homo sapiens, UniProt P04626); conditions: purified kinase 5 nmol/L, 100 μmol/L ATP
[15] = tested on: Ba/F3 cells harboring various HER2 exon 20 insertions or amplification; conditions: read-out: IC50 across all exon 20 mutants or amplification, cell growth
HER2 [16] = molecular target: T1, HER2 (Homo sapiens, UniProt P04626); conditions: Calu-3 cells, in the presence of cycloheximide
HER2 [17] = molecular target: T1, HER2; conditions: Calu-3 cells

T1 sequence (P04626 23-1255): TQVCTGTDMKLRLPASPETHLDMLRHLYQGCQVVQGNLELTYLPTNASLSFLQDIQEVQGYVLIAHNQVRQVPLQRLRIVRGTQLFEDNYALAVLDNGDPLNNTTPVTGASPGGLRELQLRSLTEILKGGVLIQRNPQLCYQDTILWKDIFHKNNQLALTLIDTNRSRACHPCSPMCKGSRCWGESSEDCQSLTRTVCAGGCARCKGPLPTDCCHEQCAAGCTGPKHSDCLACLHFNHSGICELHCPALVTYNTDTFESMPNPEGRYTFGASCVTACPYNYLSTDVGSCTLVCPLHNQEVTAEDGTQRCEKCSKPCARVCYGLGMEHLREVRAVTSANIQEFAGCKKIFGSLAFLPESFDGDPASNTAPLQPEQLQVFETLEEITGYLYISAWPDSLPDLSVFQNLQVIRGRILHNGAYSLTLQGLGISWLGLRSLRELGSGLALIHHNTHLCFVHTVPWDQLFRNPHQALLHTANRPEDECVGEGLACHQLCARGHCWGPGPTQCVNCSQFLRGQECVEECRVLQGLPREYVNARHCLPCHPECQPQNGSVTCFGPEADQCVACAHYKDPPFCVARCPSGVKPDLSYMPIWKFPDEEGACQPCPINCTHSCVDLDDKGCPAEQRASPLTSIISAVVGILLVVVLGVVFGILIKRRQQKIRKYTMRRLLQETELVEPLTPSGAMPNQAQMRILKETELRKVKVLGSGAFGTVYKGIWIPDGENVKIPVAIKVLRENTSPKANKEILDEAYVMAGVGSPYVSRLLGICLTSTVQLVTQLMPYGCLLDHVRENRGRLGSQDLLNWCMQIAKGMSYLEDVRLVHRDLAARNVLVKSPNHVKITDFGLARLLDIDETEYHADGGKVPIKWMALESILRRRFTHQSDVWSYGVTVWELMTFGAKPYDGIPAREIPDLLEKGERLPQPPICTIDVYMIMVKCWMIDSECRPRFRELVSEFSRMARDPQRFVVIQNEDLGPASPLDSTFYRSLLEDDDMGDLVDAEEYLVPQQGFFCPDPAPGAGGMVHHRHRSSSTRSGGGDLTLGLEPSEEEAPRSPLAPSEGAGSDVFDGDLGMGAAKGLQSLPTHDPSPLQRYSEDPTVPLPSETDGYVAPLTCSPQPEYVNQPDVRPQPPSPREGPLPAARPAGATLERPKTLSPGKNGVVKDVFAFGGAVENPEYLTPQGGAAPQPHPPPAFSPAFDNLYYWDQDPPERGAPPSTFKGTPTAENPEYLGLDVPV
Chain of WT HER2 (P04626 720-987 limits assumed): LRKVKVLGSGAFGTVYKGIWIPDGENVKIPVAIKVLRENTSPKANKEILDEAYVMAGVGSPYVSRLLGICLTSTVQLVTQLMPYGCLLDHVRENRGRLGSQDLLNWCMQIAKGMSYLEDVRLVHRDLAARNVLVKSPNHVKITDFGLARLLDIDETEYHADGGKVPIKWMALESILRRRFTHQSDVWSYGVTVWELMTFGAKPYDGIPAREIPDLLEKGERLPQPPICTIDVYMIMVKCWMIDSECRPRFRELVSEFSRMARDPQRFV

Work on CCOc1cc2ncc(C#N)c(Nc3ccc(Oc4ccn5ncnc5c4)c(C)c3)c2cc1NC(=O)/C=C/CN(C)C [JBJ-08-178-01] yielded an IC50 [1] of 368 ± 103 nM, an IC50 [2] of 13.6 ± 2.24 nM and an IC50 [3] of 7.38 ± 2.66 nM. It also gave an IC50 [4] of 6.01 ± 2.94 nM, an IC50 [5] of 21 ± 12 nM and an IC50 (Ba/F3 cells HER2 S310F) of 41.5 ± 13.4 nM. The IC50 (Ba/F3 cells HER2 L755S) was 140 ± 45.3 nM, the IC50 (Ba/F3 cells HER2 V777L) was 2.71 ± 0.41 nM and the IC50 (Ba/F3 cells HER2 V862I) was 284 ± 118 nM. For the same compound, the IC50 [6] was 7.24 ± 2.28 nM, the IC50 [7] was 15.3 ± 11.4 nM and the “Selectivity index (IC50 ratio = WT EGFR ÷ all HER2 mutants)” value [8] was 6.8 and 6.83. For the same compound, the growth inhibition [9] was “did not inhibit the growth”, the IC50 (MCF7) was 967 ± 429 nM and the IC50 (A-431) was 378 ± 77.1 nM. The IC50 (H1781) was 151 ± 52.7 nM, the IC50 (DFCI 429) was 252 ± 179 nM and the IC50 (DFCI 315 [10]) was 456 ± 117 nM. It also gave an IC50 (BT-474) of 43.7 ± 11.1 nM, an IC50 (SKBR3) of 79.4 ± 56.5 nM and an IC50 (NCI-N87) of 1.2 nM. The AUCINF_obs ([11]; IV (2 mg/kg)) was 323,166 min*ng/mL, the AUClast ([11]; IV (2 mg/kg)) was 317,601 min*ng/mL and the CI_obs ([11]; IV (2 mg/kg)) was 6.26 mL/min/kg. The Cmax ([11]; IV (2 mg/kg)) was 5.68 µM, the MRTINF_obs ([11]; IV (2 mg/kg)) was 1.42 h and the T1/2 ([11]; IV (2 mg/kg)) was 1.41 h. For the same compound, the Tmax ([11]; IV (2 mg/kg)) was 0.36 h, the Vss_obs ([11]; IV (2 mg/kg)) was 0.5 L/kg and the AUCINF_obs ([11]; PO (10 mg/kg)) was 243,219 min*ng/mL. For the same compound, the AUClast ([11]; PO (10 mg/kg)) was 166,787 min*ng/mL, the CI_obs ([11]; PO (10 mg/kg)) was 48.87 mL/min/kg and the Cmax ([11]; PO (10 mg/kg)) was 1.12 µM. It also gave an F ([11]; PO (10 mg/kg)) of 10%, a T1/2 ([11]; PO (10 mg/kg)) of 3.65 h and a Tmax ([11]; PO (10 mg/kg)) of 2.33 h. The tumor growth (Calu-3 tumors [12]) was “comparable tumor regression with neratinib”, the “cell apoptosis (TUNEL)” value (Calu-3 tumors [13]) was “significantly increased cell apoptosis compared with vehicle” and the “apoptosis (caspase-3/7)” value (Calu-3) was “rapid and greater degree of apoptosis compared with cells treated with poziotinib, neratinib, or tucatinib”. For the same compound, the PI-positive dead cells (DFCI 315 [14]) was “significantly increased PI-positive dead cells”, the “inhibition of WT HER2 in biochemical inhibition assays” value (WT HER2) was “potently inhibited WT HER2” and the IC50 [15] was < 50 nM. For the same compound, the “protein stability of HER2” value (HER2 [16]) was “decreased protein stability of HER2 compared with vehicle” and the “HER2 endocytosis (pHrodo fluorescence signal)” value (HER2 [17]) was “dramatic increase of fluorescence signal in the cytoplasm”.

— PMC10428001 (Cancer research, 2022)
